Measurements taken from publication PMC9090415, “Discovery of small molecule inhibitors of Plasmodium falciparum apicoplast DNA polymerase” (Journal of Enzyme Inhibition and Medicinal Chemistry, 2022).

Target: T1, bacteriophage T4 DNA polymerase (Enterobacteria phage T4, UniProt P04415)
T1 construct: made in house
T1 sequence (P04415 1-898): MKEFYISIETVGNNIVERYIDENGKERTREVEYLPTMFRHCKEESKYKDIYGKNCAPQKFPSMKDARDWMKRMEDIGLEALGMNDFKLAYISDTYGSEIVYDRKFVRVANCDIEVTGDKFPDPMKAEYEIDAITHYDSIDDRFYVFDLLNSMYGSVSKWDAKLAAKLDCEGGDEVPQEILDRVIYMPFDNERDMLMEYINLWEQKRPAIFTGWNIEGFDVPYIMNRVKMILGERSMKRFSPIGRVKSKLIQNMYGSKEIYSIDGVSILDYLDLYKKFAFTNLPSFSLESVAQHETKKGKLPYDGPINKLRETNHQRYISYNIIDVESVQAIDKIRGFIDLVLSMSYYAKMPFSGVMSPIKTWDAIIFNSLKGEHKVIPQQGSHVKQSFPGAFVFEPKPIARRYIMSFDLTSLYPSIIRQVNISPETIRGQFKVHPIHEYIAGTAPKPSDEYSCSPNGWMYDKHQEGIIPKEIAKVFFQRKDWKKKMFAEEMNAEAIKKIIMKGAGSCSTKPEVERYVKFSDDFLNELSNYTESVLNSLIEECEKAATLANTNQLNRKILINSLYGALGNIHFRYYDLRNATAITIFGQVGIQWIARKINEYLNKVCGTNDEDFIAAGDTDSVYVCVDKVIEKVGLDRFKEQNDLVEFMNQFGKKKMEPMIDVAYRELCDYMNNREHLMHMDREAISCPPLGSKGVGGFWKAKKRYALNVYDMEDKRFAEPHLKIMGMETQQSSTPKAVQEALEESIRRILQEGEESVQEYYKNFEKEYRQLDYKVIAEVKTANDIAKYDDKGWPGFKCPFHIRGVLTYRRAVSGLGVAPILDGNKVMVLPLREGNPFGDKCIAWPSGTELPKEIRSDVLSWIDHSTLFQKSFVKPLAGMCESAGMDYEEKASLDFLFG
Experiment: Counter-screen against bacteriophage T4 DNA polymerase
Format: biochemical
Settings: for % inhibition T4 10' 2.5 / % inhibition T4 10' 5 / % inhibition T4 10' 10 / % inhibition T4 10' 20 / % inhibition T4 10' 40 / % inhibition T4 10' 80: read at 10'; for % inhibition T4 70' 2.5 / % inhibition T4 70' 5 / % inhibition T4 70' 10 / % inhibition T4 70' 20 / % inhibition T4 70' 40 / % inhibition T4 70' 80: read at 70'; for % inhibition T4 130' 2.5 / % inhibition T4 130' 5 / % inhibition T4 130' 10 / % inhibition T4 130' 20 / % inhibition T4 130' 40 / % inhibition T4 130' 80: read at 130'; for % inhibition T4 40' 2.5 / % inhibition T4 40' 5 / % inhibition T4 40' 10 / % inhibition T4 40' 20 / % inhibition T4 40' 40 / % inhibition T4 40' 80: read at 40'; for % inhibition T4 90' 2.5 / % inhibition T4 90' 5 / % inhibition T4 90' 10 / % inhibition T4 90' 20 / % inhibition T4 90' 40 / % inhibition T4 90' 80: read at 90'; for % inhibition T4 180' 2.5 / % inhibition T4 180' 5 / % inhibition T4 180' 10 / % inhibition T4 180' 20 / % inhibition T4 180' 40 / % inhibition T4 180' 80: read at 180'
Protocol: Codon-optimized, exonuclease-deficient Pf-apPOL was overexpressed in E. coli BL21 (DE3) and purified as described. The protein was dialysed against two, 1-liter changes of 20 mM Tris-HCl (pH 8.0), 400 mM NaCl, and 20% glycerol. Plasmodium bergei and Babesia bovis apPOLs (Pb-apPOL and Bb-apPOL, respectively) were codon-optimized, expressed, and purified as for Pf-apPOL[15]. Bacteriophage T4 DNA polymerase was purified as described. The DNA oligonucleotides used to make the high-throughput substrate were obtained from Integrated DNA Technologies. Deoxynucleotides were purchased from Strategene. All other materials came from Fisher Scientific.
Each compound was tested in a dose-response format to determine IC50 values. […] T4 DNA polymerase can be produced in large quantities, and is in the same family (B-family) as the replicative human DNA polymerases (α, δ, and ε)[20].

## Cc1ccc(NC(=O)Cn2ccc3c(=O)[nH]ccc32)cc1F [Molecule 48, O=C(Cn1ccc2c1cc[nH]c2=O)Nc1ccc(c(c1)F)C]
DRC-2, concentration 5
  % inhibition T4 10': -12%
  % inhibition T4 40': -12%
  % inhibition T4 180': -12%
DRC-2, concentration 10
  % inhibition T4 90': -15%
  % inhibition T4 180': -15%

## Nc1cc(Oc2ccc(O)c(N)c2)ccc1O [KU0034728]
DRC-1, concentration 2.5
  % inhibition T4 10' 2.5: 10.6184%
  % inhibition T4 70' 2.5: 10.2077%
  % inhibition T4 130' 2.5: 10.8947%
DRC-1, concentration 5
  % inhibition T4 10' 5: 9.797%
  % inhibition T4 70' 5: 9.3179%
  % inhibition T4 130' 5: 9.975%
DRC-1, concentration 10
  % inhibition T4 10' 10: 12.6946%
  % inhibition T4 70' 10: 12.3114%
  % inhibition T4 130' 10: 11.1726%
DRC-1, concentration 20
  % inhibition T4 10' 20: 6.887%
  % inhibition T4 70' 20: 7.7965%
  % inhibition T4 130' 20: 8.154%
DRC-1, concentration 40
  % inhibition T4 10' 40: 15.6951%
  % inhibition T4 70' 40: 14.4419%
  % inhibition T4 130' 40: 14.6568%
DRC-1, concentration 80
  % inhibition T4 10' 80: 21.8837%
  % inhibition T4 70' 80: 19.0676%
  % inhibition T4 130' 80: 18.4293%
DRC-2, concentration 2.5
  % inhibition T4 10' 2.5: -8.57%
  % inhibition T4 40' 2.5: -8%
  % inhibition T4 90' 2.5: -7%
  % inhibition T4 180' 2.5: -11%
DRC-2, concentration 5
  % inhibition T4 10' 5: -11%
  % inhibition T4 40' 5: -11%
  % inhibition T4 90' 5: -9.49%
  % inhibition T4 180' 5: -15%
DRC-2, concentration 10
  % inhibition T4 10' 10: -3.21%
  % inhibition T4 40' 10: -5.5%
  % inhibition T4 90' 10: -3.47%
  % inhibition T4 180' 10: -8%
DRC-2, concentration 20
  % inhibition T4 10' 20: -7%
  % inhibition T4 40' 20: -8%
  % inhibition T4 90' 20: -7%
  % inhibition T4 180' 20: -11%
DRC-2, concentration 40
  % inhibition T4 10' 40: 3.18%
  % inhibition T4 40' 40: -2.76%
  % inhibition T4 90' 40: -4.46%
  % inhibition T4 180' 40: -7.51%
DRC-2, concentration 80
  % inhibition T4 10' 80: 12%
  % inhibition T4 40' 80: -1.54%
  % inhibition T4 90' 80: -9%
  % inhibition T4 180' 80: -14%

## O=C(O)CCS(=O)(=O)c1ccc(-c2ccc(S(=O)(=O)CCC(=O)O)cc2)cc1 [Molecule 32, OC(=O)CCS(=O)(=O)c1ccc(cc1)c1ccc(cc1)S(=O)(=O)CCC(=O)O]
DRC-2, concentration 2.5
  % inhibition T4 10': -14%
  % inhibition T4 180': -25%
DRC-2, concentration 20
  % inhibition T4 40': -22%
  % inhibition T4 90': -25%
DRC-2, concentration 40
  % inhibition T4 40': -14%
  % inhibition T4 90': -17%
  % inhibition T4 180': -22%
DRC-2, concentration 5
  % inhibition T4 90': -25%
DRC-2, concentration 80
  % inhibition T4 180': -17%

## COc1ccc(/C=C/c2cc(C(=O)O)c3ccccc3n2)cc1 [Molecule 5, COc1ccc(cc1)/C=C/c1nc2ccccc2c(c1)C(=O)O]
DRC-1, concentration 2.5
  % inhibition T4 10' 2.5: 1.081%
  % inhibition T4 70' 2.5: -11.7738%
  % inhibition T4 130' 2.5: -10.2066%
DRC-1, concentration 5
  % inhibition T4 10' 5: 5.185%
  % inhibition T4 70' 5: -0.8035%
  % inhibition T4 130' 5: -1.2832%
DRC-1, concentration 10
  % inhibition T4 10' 10: 0.5818%
  % inhibition T4 70' 10: 5.827%
  % inhibition T4 130' 10: 4.495%
DRC-1, concentration 20
  % inhibition T4 10' 20: -3.901%
  % inhibition T4 70' 20: 2.436%
  % inhibition T4 130' 20: 3.3008%
DRC-1, concentration 40
  % inhibition T4 10' 40: -6.063%
  % inhibition T4 70' 40: 2.364%
  % inhibition T4 130' 40: 3.939%
DRC-1, concentration 80
  % inhibition T4 10' 80: 5.54%
  % inhibition T4 70' 80: 3.646%
  % inhibition T4 130' 80: 6.199%
DRC-2, concentration 2.5
  % inhibition T4 10' 2.5: 4.49%
  % inhibition T4 40' 2.5: 4%
  % inhibition T4 90' 2.5: 3%
  % inhibition T4 180' 2.5: -3.34%
DRC-2, concentration 5
  % inhibition T4 10' 5: 7%
  % inhibition T4 40' 5: 8%
  % inhibition T4 90' 5: 6.33%
  % inhibition T4 180' 5: 0.194%
DRC-2, concentration 10
  % inhibition T4 10' 10: 18%
  % inhibition T4 40' 10: 18%
  % inhibition T4 90' 10: 16%
  % inhibition T4 180' 10: 10%
DRC-2, concentration 20
  % inhibition T4 10' 20: 21%
  % inhibition T4 40' 20: 27%
  % inhibition T4 90' 20: 25%
  % inhibition T4 180' 20: 18%
DRC-2, concentration 40
  % inhibition T4 10' 40: 24%
  % inhibition T4 40' 40: 31%
  % inhibition T4 90' 40: 29%
  % inhibition T4 180' 40: 25%
DRC-2, concentration 80
  % inhibition T4 10' 80: 17%
  % inhibition T4 40' 80: 26%
  % inhibition T4 90' 80: 27%
  % inhibition T4 180' 80: 24%

## O=C1C(=Cc2ccccc2O)Oc2ccc(O)cc21 [KU0196475]
DRC-2, concentration 80
  % inhibition T4 10': 34%
DRC-2, concentration 2.5
  % inhibition T4 40': 10%
DRC-2, concentration 5
  % inhibition T4 40': 10%
DRC-2, concentration 10
  % inhibition T4 40': 21%
  % inhibition T4 90': 21%
DRC-2, concentration 40
  % inhibition T4 90': 34%

## CCCc1ccc(Oc2coc3cc(OC)ccc3c2=O)cc1 [KU0193249]
DRC-1, concentration 2.5
  % inhibition T4 10' 2.5: 1.7455%
  % inhibition T4 70' 2.5: 0.7287%
  % inhibition T4 130' 2.5: -0.4639%
DRC-1, concentration 5
  % inhibition T4 10' 5: -0.5189%
  % inhibition T4 70' 5: -0.7228%
  % inhibition T4 130' 5: -1.759%
DRC-1, concentration 10
  % inhibition T4 10' 10: 7.431%
  % inhibition T4 70' 10: 6.283%
  % inhibition T4 130' 10: 5.142%
DRC-1, concentration 20
  % inhibition T4 10' 20: -2.718%
  % inhibition T4 70' 20: -2.8267%
  % inhibition T4 130' 20: -2.066%
DRC-1, concentration 40
  % inhibition T4 10' 40: 4.024%
  % inhibition T4 70' 40: 4.61%
  % inhibition T4 130' 40: 4.723%
DRC-1, concentration 80
  % inhibition T4 10' 80: -14.455%
  % inhibition T4 70' 80: -10.3998%
  % inhibition T4 130' 80: -9.229%
DRC-2, concentration 2.5
  % inhibition T4 10' 2.5: 9%
  % inhibition T4 40' 2.5: 9%
  % inhibition T4 90' 2.5: 8%
  % inhibition T4 180' 2.5: 1.43%
DRC-2, concentration 5
  % inhibition T4 10' 5: -2.34%
  % inhibition T4 40' 5: -2.34%
  % inhibition T4 90' 5: -2.2%
  % inhibition T4 180' 5: -7%
DRC-2, concentration 10
  % inhibition T4 10' 10: 0.369%
  % inhibition T4 40' 10: 0.369%
  % inhibition T4 90' 10: -0.214%
  % inhibition T4 180' 10: -5%
DRC-2, concentration 20
  % inhibition T4 10' 20: -9%
  % inhibition T4 40' 20: -9%
  % inhibition T4 90' 20: -7%
  % inhibition T4 180' 20: -10%
DRC-2, concentration 40
  % inhibition T4 10' 40: -1.47%
  % inhibition T4 40' 40: -1.47%
  % inhibition T4 90' 40: 0.714%
  % inhibition T4 180' 40: -1.19%
DRC-2, concentration 80
  % inhibition T4 10' 80: -4.57%
  % inhibition T4 40' 80: -4.57%
  % inhibition T4 90' 80: -1.8%
  % inhibition T4 180' 80: -4%
